Experimental data from US10051860B2, “Plant disease controlling composition and method for controlling plant disease” (SUMITOMO CHEMICAL COMPANY, LIMITED, priority 2010, dated 2018).

System: gray mold fungus (Botrytis cinerea)
Test: Cucumber leaf disk preventive test against gray mold fungus (Test Examples 1 and 2, Reference Examples)
Assay type: in vivo
Conditions: 15° C., four days
Description: To a SUS beaker are added 30 parts of the present compound (racemate), 5 parts of Soprophor FLK (polyoxyethylene tristyrylphenyl ether phosphate, produced by Rhodia Nicca Ltd.), 65 parts of ion-exchange water and 150 parts of glass beads (1.0 mm diameter). The mixture is subjected to grinding at a velocity of 1000 rpm with cooling to 10° C., and thereafter the glass beads are separated, so as to obtain a flowable formulation comprising the present compound (racemate).
True leaf of cucumber is punched out with cork borer to 13 mm in diameter to prepare a leaf disk. In 24 well microwell plate that is dispensed with 1 ml 0.8% water agar, the leaf disk is placed such that the upper side of the leaf is in an upward direction. Thereto is added 20 micro liter a testing solution prepared by mixing the flowable formulation of the present compound (racemate) prepared by the above procedure and a commercial liquid formulation of validamycin or a commercial wettable powders of polyoxins to a predetermined concentration to treat the leaf disk.
After confirming that the testing medical solution is dried, conidium of gray mold fungus (Botrytis cinerea) is suspended into potato dextrose broth (DIFCO) in a density of about 10^5 conidium/mL and is then subjected to a spray inoculation. After leaving to stand the leaf disk in a growth chamber set up at 15° C. for four days, an onset area on the leaf is measured and then calculated an onset area rate (hereinafter, referred to as an onset area rate of treated group).
The same operation is carried out with 20 micro liter water instead of 20 micro liter a testing medicine solution to calculate an onset area rate (hereinafter, referred to an onset area rate of non-treated group).
A preventive value is calculated from the above onset area rate of treated group and the onset area rate of non-treated group by the following equation: Preventive value (%)=100×(A−B)/A
A: an onset area rate of treated group
B: an onset area rate of non-treated group
The same operations as described in Test Example 1 are carried out with kasugamycin or streptomycin instead of validamycin or polyoxins, so as to calculate respective preventive values.
Also for comparison, the same operations as described in Test Example 1 are carried out with the exception that the testing medicine solution is substituted with a predetermined concentration of either a flowable formulation of the present amide compound or a commercial wettable powder of kasugamycin or streptomycin, so as to calculate respective preventive values.
For comparison, the same operations as described in Test Example 1 are carried out with the exception that the testing medicine solution is substituted with a predetermined concentration of a solution of a wettable powder of validamycin or polyoxins, so as to calculate a preventive value.

[1] = antibiotic compound alone 0.5 ppm
[2] = antibiotic compound alone 5.0 ppm

Compound	preventive value (%) [1]	preventive value (%) [2]
polyoxins	11%	15%
OCC1=C[C@H](N[C@H]2C[C@H](CO)[C@@H](O[C@@H]3O[C@H](CO)[C@@H](O)[C@H](O)[C@H]3O)[C@H](O)[C@H]2O)[C@H](O)[C@@H](O)[C@@H]1O [validamycin]	5%	10%
[H]/N=C(/N)N[C@H]1[C@H](O)[C@@H](O)[C@H](O[C@@H]2O[C@@H](C)[C@](O)(C=O)[C@H]2O[C@@H]2O[C@@H](CO)[C@H](O)[C@@H](O)[C@@H]2NC)[C@@H](N/C(N)=N\[H])[C@@H]1O [streptomycin]	0%	10%
C[C@H]1O[C@H](O[C@H]2[C@H](O)[C@@H](O)[C@@H](O)[C@H](O)[C@@H]2O)[C@@H](N)C[C@@H]1NC(=N)C(=O)O [kasugamycin]	0%	10%
